In patent publication US7371379B2, “Dosages for treatment with anti-ErbB2 antibodies” (Genentech, Inc., priority 1999, dated 2008):

Key:
[1] = tested on: ErbB2-overexpressing metastatic breast cancer; test: clinical study of chemotherapy with or without HERCEPTIN (Example 1); assay type: in vivo, human
Excerpt: Eligibility Criteria Patients had to fulfill all of the following criteria to be eligible for study admission: • Metastatic breast cancer • Overexpression of the ErbB2 (HER2) oncogene (2+ to 3+ as determined by immunohistochemistry or fluorescence in situ hybridization (FISH). [Tumor expression of ErbB2 can be determined by immunohistochemical analysis, as previously described (Slamon et al., [1987] and [1989], supra), of a set of thin sections prepared from the patient's paraffin-archived tumor blocks. The primary detecting antibody used is murine 4D5 MAb, which has the same CDRs as the humanized antibody used for the treatment.
Beginning on day 7, patients received weekly administration of 2 mg/kg antibody (i.v.) over a 90-minute period.
The patients received one of two chemotherapy regimens for a minimum of six cycles, provided their disease was not progressing: a) cyclophosphamide and doxorubicin or epirubicin (AC), if patients have not received anthracycline therapy in the adjuvant setting, or b) paclitaxel (T, TAXOL®), if patients have received any anthracycline therapy in the adjuvant setting. […] Subsequent doses of the antibody were given immediately before chemotherapy administration, if the initial dose of the antibody was well tolerated. If the first dose of the antibody was not well tolerated, subsequent infusions continued to precede chemotherapy administration by 24 hours. Patients were permitted to continue receiving chemotherapy beyond six cycles if, in the opinion of the treating physician, they were continuing to receive treatment benefit.
Cyclophosphamide (600 mg/m^2) was given either by iv push over a minimum period of 3 minutes or by infusion over a maximum period of 2 hours.
Doxorubicin (60 mg/m^2) or epirubicin (75 mg/m^2) were given either by slow iv push over a minimum period of 3-5 minutes or by infusion over a maximum period of 2 hours, according to institutional protocol.
All patients receiving paclitaxel were premedicated with dexamethasone (or its equivalent) 20 mg×2, administered orally 12 and 6 hours prior to paclitaxel; diphenhydramine (or its equivalent) 50 mg, iv, administered 30 minutes prior to paclitaxel, and […] (or another H2 blocker) 300 mg, iv, administered 30 minutes prior to paclitaxel.
Progressive disease also includes those instances when new lesions have appeared.
Complete Response Disappearance of all radiographically and/or visually apparent tumor for a minimum of 4 weeks. Skin and chest wall complete responses had to be confirmed by biopsy. […]
Time to disease progression (TTP) was calculated from the beginning of therapy to progression. Confidence limits for response rates were calculated using the exact method for a single proportion. […]

BT-474M1 [2] = test: nude mouse xenograft tumor volume, i.v. bolus versus s.c. infusion (Example 3); assay type: in vivo; settings: control s.c. infusion
Method: A study in a nude mouse xenograft model, which incorporates a human breast cancer cell line that naturally overexpresses the HER2 gene (BT-474M1, derived from BT-474 cells, ATCC Accession number HTB-20), comparing tumor volume as a function of i.v. bolus versus s.c. infusion was performed as follows. In the first study athymic nude nu nu 7-9 week old female mice were obtained from Taconic Inc (Germantown, N.Y.). To initiate tumor development, each mouse was inoculated subcutaneously with 3×10^6 BT474M1 cells suspended in Matrigel™. When tumor nodules reached a volume of approximately 100 mm^3, animals were randomized to 4 treatment groups.
(§3) Animals were exposed to estrogen by subcutaneous sustained release estrogen pellet 9 days before the start of dosing to promote growth of grafted tumor cells. The animals were inoculated with the BT474M 1 cells 8 days before the beginning of treatment and tumors were allowed to grow. […] The study groups were treated until day 35. […] Tumor volumes were measured two days before dosing began and twice per week from day 6 to day 35 in the study for which data is tabulated below. Tumors were measured in three dimensions and volumes were expressed in mm^3. Efficacy was determined by a statistical comparison (ANOVA) of tumor volumes of test animals relative to untreated control animals.

[3] = serum antibody concentration in xenograft mice (Example 3); assay type: in vivo, mouse; settings: control s.c. infusion
Method: as §3

[4] = serum antibody concentration in xenograft mice (Example 4); assay type: in vivo, mouse; settings: Group 1, IV, MD 4 mg/kg
Method: (§1) This study was set up as disclosed herein in Example 3 for the comparison of intravenous bolus and subcutaneous infusion delivery. A sustained release estrogen implant was inserted subcutaneously one day before tumor cell innoculation as described in Example 3. Six days after tumor cell innoculation, the initial tumor measurement was performed. […] Animals were dosed once weekly for 4 weeks.
(§2) The mice were treated according to the information in Table 4 and using the techniques disclosed in Example 3. […] The control E25 antibody serum concentration was determined according to standard immunoassay techniques.

BT-474M1 [5] = test: nude mouse xenograft tumor volume, i.v. bolus versus s.c. bolus (Example 4); assay type: in vivo; settings: Group 1, IV Control
Method: as §1, §2
For this study, efficacy was measured as a decrease in tumor volume. Tumor volume was measured twice weekly.

[6] = median follow-up 10.5 months, H 4 mg/kg then 2 mg/kg weekly i.v.

Compound	syndrome of myocardial dysfunction ([1]; Grade ¾) [%]	AE(%) overall severe adverse events ([1]; median follow-up 10.5 months) [%]	RR(%) [1, 6] [%]	TTP(months) [1, 6] [months]	Tumor Volume (area under curve) Day 6-Day 35 (BT-474M1 [2])	Tumor Volume (mm^3), Day 35 (BT-474M1 [2]; IV LD 2.20 mg/kg, infusate […]) [mm^3]	HERCEPTIN Serum Conc. (μg/ml), Day 27 [3] [µg/mL]	Serum Concentration, Mean ([4]; Day 0) [ng/mL]	Serum Concentration, Mean ([4]; Day 7) [ng/mL]	Serum Concentration, Mean ([4]; Day 14) [ng/mL]	Serum Concentration, Mean ([4]; Day 21) [ng/mL]	Tumor Vol. Day 28, mm^3 (BT-474M1 [5]) [mm^3]	Tumor Vol. Day 31, mm^3 (BT-474M1 [5]) [mm^3]	Tumor Vol. Day 6, mm^3 (BT-474M1 [5]; LD 8, MD 4 mg/kg/week, initial measurement before first dose) [mm^3]	Day 6-Day 31 Area Under Curve Tumor Vol., mm^3 (BT-474M1 [5]; Day 17 excluded) [mm^3]
CC(=O)O[C@H]1C(=O)[C@@]2(C)[C@H]([C@H](OC(=O)c3ccccc3)[C@]3(O)C[C@H](OC(=O)[C@H](O)[C@@H](NC(=O)c4ccccc4)c4ccccc4)C(C)=C1C3(C)C)[C@]1(OC(C)=O)CO[C@@H]1C[C@@H]2O [T, paclitaxel]	0	59	25.0	4.2											
rhu MAb E25: nonrelevant antibody E25 (non-specific for HER2 receptor, but a member of the monoclonal IgG class)					5650 ± 4700	764 ± 700	4.16 ± 1.94	0	25900	34600	38500	1530	1630	321	13600
